Laboratory results as given in patent US20220000734A1, “COMPOSITION AND METHOD OF STRENGTHENING SKIN BARRIER” (AMOREPACIFIC CORPORATION, priority 2018, published 2022).

What was measured:
Format in all cases: cell-based, human
[1] = tested on: KRT10 (keratin 10); test: KRT10 gene expression in UVB-irradiated NHEK (Taqman real-time PCR); conditions: UVB 25 mJ/cm^2, 10 nM compound, fourth day of culture, FIG. 2
Description: (§1) Normal human epidermal keratinocytes (NHEK) were cultured in a 6-well plate incubator. 24 hours later, the normal human epidermal keratinocytes (NHEK) were cultured by replacing it with phosphate-buffered saline (PBS) and irradiating it with UVB (25 mJ/cm^2) and adding 10 nM of a compound represented by Chemical Formula 1-1 (Cayman Chemical) to the NHEK culture medium. On the fourth day of the culture, cells were harvested to separate RNA and synthesize cDNA through RT-PCR (a reverse transcriptional polymerase chain reaction), and the synthesized cDNA was used to perform Taqman real-time PCR and measure gene expression levels of a keratinocyte differentiation markers, KRT1 and KRT10, and a desmosome constituent factor, DSC1, and the results are shown in FIGS. 1 to 3.

[2] = tested on: DSC1; test: DSC1 gene expression in UVB-irradiated NHEK (Taqman real-time PCR); conditions: UVB 25 mJ/cm^2, 10 nM compound, fourth day of culture, FIG. 3
Description: as §1

[3] = tested on: KRT1 (keratin 1); test: KRT1 gene expression in UVB-irradiated NHEK (Taqman real-time PCR); conditions: UVB 25 mJ/cm^2, 10 nM compound, fourth day of culture, FIG. 1
Description: as §1

CC/C=C/C/C=C\C[C@H](O)\C=C/C=C/C=C/[C@H](O)C/C=C\CCC(=O)O [Chemical Formula 1-1]
increased again: gene expression level of KRT10 (keratin 10) [1] | gene expression level of DSC1 [2] | gene expression level of KRT1 (keratin 1) [3]
